Tested on: rat collagen-induced arthritis model
Test: Edema suppression in both hindlimbs, rat collagen-induced arthritis model
Assay type: in vivo
Parameters: key to Edema Index: sum of both hindlimb edema volumes on days 14, 18, 22, 26
Settings: for Relative index: control group = 1.000; for Edema Index: average ± standard error
Description: For the cases of combined administration and respective single drug administrations of 2-benzyl-5-(4-chlorophenyl)-6-[4-(methylthio)phenyl]-2H-pyridazin-3-one and atorvastatin calcium hydrate, the effect of edema suppression in both hindlimbs was determined by the following method (rat collagen-induced arthritis model) (FDA, CBER, CDER, CDRH: Guidance for industry—Clinical development programs for drugs, devices, and biological products for the treatment of rheumatoid arthritis (RA)—.(1999)).
For the test animal, female Lewis rats (LEW/Crj) (obtained from Charles River Laboratories Japan, Inc.) were used.
For each 8-week-old LEW/Crj rat, the volume of a portion from the ankle to the toe tip of both hindlimbs (hereinafter, both hindlimbs volume) was measured by means of a plethysmometer for small animals (TK-101CMP, product of Unicom), and the total volume was taken as the both hindlimbs volume upon initiation of test (hereinafter, Pre value). This Pre value was used as an index to divide the rats into groups by randomized block design by the single variable, so that the values in the respective groups averaged out.
The collagen emulsion for sensitization that was used to induce arthritis in rats, was prepared by homogenizing a 0.3% Type II collagen solution (Collagen Research Center), Adjuvant Peptide (Peptide Institute, Inc.) and Adjuvant Incomplete Freund (DIFCO), using a Handy Micro Homogenizer (Microtec Nition, Co., Ltd.) under ice-cooling. The collagen emulsion thus prepared was intracutaneously administered at 10 sites in the back of each rat at a dose of 0.1 mL/site, to perform initial sensitization of the rat. Seven days after the initial sensitization, 0.12 mL of the same collagen emulsion was intracutaneously administered to the root of tail in each rat, to perform booster sensitization.
Drug administration was conducted from the day after the initial sensitization through 26 days thereafter. The group for sole administration of 2-benzyl-5-(4-chlorophenyl)-6-[4-(methylthio)phenyl]-2H-pyridazin-3-one (Drug A) was orally administered with the drug at 3 mg/kg, twice a day, in the morning (9:00 to 11:00) and in the evening (15:30 to 17:30). The group for sole administration of atorvastatin calcium hydrate (Drug B1) was orally administered with the drug at 30 or 100 mg/kg, once a day, in the afternoon (11:30 to 13:30). On the other hand, the group for combined administration of Drug A and Drug B1 was orally administered with Drug A at 3 mg/kg in the morning (9:00 to 11:00) and in the evening (15:30 to 17:30), and with Drug B1 at 30 or 100 mg/kg in the afternoon (11:30 to 13:30).
14, 18, 22 and 26 days after the initial sensitization, the both hindlimbs volume was measured again for each rat, and the difference between each of the values and the Pre value was determined to calculate the edema volume for both hindlimbs. The sum of the edema volumes for both hindlimbs measured 14, 18, 22 and 26 days after the initial sensitization was calculated as Edema Index, and this was taken as an index for the effects of the drugs.
Table 1 and FIG. 1 present the Edema Indices of the group for sole administration of 3 mg/kg of Drug A, the group for sole administration of 30 mg/kg of Drug B1, and the group for combined administration of both drugs. Furthermore, Table 2 and FIG. 2 present the Edema Indices of the group for sole administration of 3 mg/kg of Drug A, the group for sole administration of 100 mg/kg of Drug B1, and the group for combined administration of both drugs. The Edema Index is expressed in the average value±standard error of 8 rats in each group. Furthermore, the decrease rate is indicated as ((X−Y)/X)×100 (X: average Edema Index for control group, Y: average Edema Index for each group)

Structure (SMILES)	Relative index (Table 1 experiment, sole Drug A 3 mg/kg orally twice a day)	Decrease rate (%) (Table 1 experiment, sole Drug A 3 mg/kg orally twice a day, vs control group Edema Index)	Edema Index (Table 1 experiment, sole administration of Drug A 3 mg/kg orally twice a day, day 1-26 after initial sensitization, sum of edema volumes on days 14, 18, 22, 26)	Relative index (Table 2 experiment, sole Drug A 3 mg/kg orally twice a day)	Decrease rate (%) (Table 2 experiment, sole Drug A 3 mg/kg orally twice a day, vs control group)	Edema Index (Table 2 experiment, sole administration of Drug A 3 mg/kg orally twice a day, day 1-26)	Relative index (Table 1 experiment, sole Drug B1 30 mg/kg orally once a day)	Decrease rate (%) (Table 1 experiment, sole Drug B1 30 mg/kg orally once a day, vs control group)	Edema Index (Table 1 experiment, sole administration of Drug B1 30 mg/kg orally once a day, day 1-26)	Relative index (Table 2 experiment, sole Drug B1 100 mg/kg orally once a day)	Decrease rate (%) (Table 2 experiment, sole Drug B1 100 mg/kg orally once a day, vs control group)	Edema Index (Table 2 experiment, sole administration of Drug B1 100 mg/kg orally once a day, day 1-26)	Effects on edema (Edema Index), in words (sole Drug B1 at the doses of 30 and 100 mg/kg)
CSc1ccc(-c2nn(Cc3ccccc3)c(=O)cc2-c2ccc(Cl)cc2)cc1 [Drug A, 2-benzyl-5-(4-chlorophenyl)-6-[4-(methylthio)phenyl]-2H-pyridazin-3-one]	0.935	6.5	5.23 ± 0.45	0.790	21.0	4.89 ± 0.57							
CC(C)c1c(C(=O)Nc2ccccc2)c(-c2ccccc2)c(-c2ccc(F)cc2)n1CC[C@@H](O)C[C@@H](O)CC(=O)O [Drug B1, atorvastatin calcium hydrate]							1.086	−8.6	6.07 ± 0.30	1.060	−6.0	6.57 ± 0.31	did not show any effects on edema
